Results on two compounds are retold here after patent US20090179638A1, “ASSAY FOR IDENTIFYING INHIBITORS OF NEURONAL APOPTOTIC PATHWAYS” (AEGERA THERAPEUTICS INC., priority 2006, published 2009).

Molecules are shown by their SMILES. Entries after “also recorded” stand apart in the source; their conditions may differ.

The subject of one data set is SCG neurons. The experiment in a line: NGF-withdrawal induced cell death of SCG neurons (MTS assay). It counts as cell-based, rat. As to conditions: SCG neurons withdrawn from NGF, 48 hours. The procedure:
FIG. 1 is a graph showing that compound 1 inhibits NGF-withdrawal induced cell death. Cultures of rat SCG neurons (see Materials and Methods) initially maintained in 10 ng/ml of NGF were withdrawn from NGF and maintained in media containing compound 1 at the concentrations indicated for 48 hours. Cellular viability was assayed using an MTS assay. (*=P<0.01 relative to no compound 1). Experiments were performed three times with identical results.
Survival of neonatal primary sympathetic neurons is dependent on trophic support provided by Neuronal Growth Factor (NGF) (reviewed in (Young et al., 2004)).
(§1) Cell culture, infection, transfection and immunoblotting. Sympathetic neurons were maintained and deprived of NGF as previously described (Bamji et al., 1998; Ma et al., 1992). PC12^rtTA cells were maintained and infected as previously described (Majdan et al., 1997; Salehi et al., 2002); for NRAGE, […] doxycycline was added to all plates at time of infection. Wildtype and HSF1 nullizygous immortalized mouse embryonic fibroblasts (MEFs) were maintained in DMEM containing 10% fetal calf serum, 1 μM β-mercaptoethanol, 1% non-essential amino acids, 1% L-glutamine, 1% antimycotic solution and 1% sodium pyruvate (all from GibcoBRL). Sympathetic neuron survival was assessed using the MTS assay according to the manufacturer's instructions (Promega). Analysis of PC12 cell death was determined using a lactate dehydrogenase (LDH) assay (Roche) as per the manufacturer's instructions. Transfections using plasmids or RNAi were performed using Lipofectamine 2000. Immunoblotting was performed as previously described (Majdan et al., 1997; Salehi et al., 2002).

In a further data set the test system is PC12^rtTA cells. Description: p75NTR- or NRAGE-induced cell death of PC12rtTA cells (LDH release assay). As to conditions: for protection from Adp75- or AdNRG-induced cell death: increasing concentrations, LDH. It counts as cell-based. The procedure:
FIGS. 2A and 2B are graphs showing that compound 1 inhibits p75NTR or NRAGE induced JNK activation and cell death. Compound 1 inhibits NRAGE (A) or p75NTR (B) mediated cell death. PC12^rtTA cells were infected with recombinant adenoviruses expressing full-length NRAGE (AdNRG) at 5 MOI, full length p75NTR (Adp75) at 50 or 100 MOI, or the control protein β-galactosidase (AdLacZ) (at 5 MOI in (A) and 50 MOI in (B)). At time of infection, the cells were treated with an increasing concentration of compound 1, or with vehicle alone, as indicated. After 40 hours, cells were assayed for death using the lactate dehydrogenase (LDH) assay; untreated cells (Un) and cells treated with 1% Triton X-100 (Tx) were used to delineate the output range of the assay. Results are normalized relative to those obtained with 1% Triton (Tx), and represent the mean±standard deviation of a representative experiment performed in triplicate (*=P<0.005 relative to no compound 1).
PC12^rtTA were infected with adenoviruses encoding p75NTR (Adp75), NRAGE (AdNRG), or as a control, LacZ (AdLacZ), and were concurrently exposed to increasing concentrations of compound 1 for a period of 40 hours. Cell death was assessed using an LDH release assay. […] Treatment with 40 μM compound 1 reduced p75NTR- or NRAGE-induced cell death by greater than 90%.
as §1

Another data set deals with HSP90 protein. Description: STD 1H NMR spectroscopy binding to HSP90. As to conditions: compound to protein ratio approximately 100:1, 20 mM sodium phosphate buffer pH 6.7. The procedure: (§2) FIG. 9 is a STD 1H NMR Spectrum of Compound 1 and 20 with HSP90 protein. STD NMR experiments were performed at 19° C. on a Varian INNOVA 500 MHz spectrometer equipped with a triple resonance HCN cold probe. A 1D saturation transfer difference pulse sequence with internal subtraction via phase cycling was employed. Residual HDO signal was removed using a W5 WATERGATE pulse sequence, with a […] interpulse delay. On resonance irradiation of the protein was performed at −0.5 ppm, with off-resonance irradiation at 34 ppm. The irradiation power was (g/2p)B1=93 Hz applied through a train of 50 ms eburp1 pulses with a 1 ms delay between the pulses. The total presaturation time was 5.1 s. The relaxation delay was set to 0.1 s. A 30 ms spin-lock pulse with a strength of (g/2p)B1=4600 Hz was used to eliminate background protein signals. The total number of scans was between 1536, with a sweep width of 16 ppm. Spectra were multiplied by a 1 Hz exponential line-broadening function prior to Fourier transform. Compounds 1 (85 uM) and 20 (85 uM) and HSP90 protein (0.85 uM) in 20 mM sodium phosphate buffer (pH 6.7) was used. A) STD 1H NMR spectrum, B) preset reference, and C) STD reference-no saturation/difference.
as §2, with “STD” for “FIG. 9 is a STD 1H NMR Spectrum of Compound 1 and 20 with HSP90 protein. STD”, “employed (Mayer and Meyer, JACS, 2001, 123, 6108-6117).” for “employed.”, “delay (Liu et. al, J. Magn. Res., 1998, 132, 125).” for “delay.”, “1536-2048,” for “1536,”, “transform.” for “transform. Compounds 1 (85 uM) and 20 (85 uM) and HSP90 protein (0.85 uM) in 20 mM sodium phosphate buffer (pH 6.7) was used. A) STD 1H NMR spectrum, B) preset reference, and C) STD reference-no saturation/difference.”
The compound to protein ratio was fixed at approximately 100:1 in 20 mM sodium phosphate buffer (pH 6.7). Compound 20 was used as a reference compound to compare binding affinities of various compounds to HSP90 by comparing the relative intensity of NOE effects in the spectra of compounds 1 and 20 (see FIG. 9), compounds 2 and 20, compounds 5 and 20, compounds 13 and 20, and compounds 15 and 20 (near equamolar quantities of each) in the presence of HSP90 protein. Using the NOE signals for the imidazole proton, and comparing peak heights, the relative kd of the compound pairs were compared (see Meyer and Peters, T. Angew. Chem. Int. Ed. 2003, 42, 864). The kds of the compound pairs ranged from 1:1 to 8:1. These differences in binding affinities correlated to the potency of each respective compound's ability to rescue SCG neurons from NGF withdrawal as previously reported.

In the case of `NS(=O)(=O)c1nn2cc(-c3ccccc3)nc2s1` [Compound 1], in the data set on SCG neurons, the “protection from NGF-withdrawal induced cell death” value is “protected; also recorded: inhibits”. In addition, the “reduction of p75NTR- or NRAGE-induced cell death” value in the data set with PC12^rtTA cells (40 μM, 40 hours, LDH release) was “greater than 90%”. Also, the “toxic effect in cells infected with the LacZ control” value in the data set with PC12^rtTA cells (80 μM) is “slight toxic effect”. Besides, the “inhibition of p75NTR- or NRAGE-induced apoptosis” value in the data set on PC12^rtTA cells (80 μM (highest concentration tested)) is listed as “effectively inhibited apoptosis”. Moreover, in the data set with PC12^rtTA cells (40 hours), the “protection from Adp75- or AdNRG-induced cell death” value is “strongly attenuated; also recorded: protected”. Also, in the data set with HSP90 protein, the “binding to HSP90 protein by STD 1H NMR” value was “directly bind”.

With `NS(=O)(=O)c1nn2cc(-c3ccc(N4CCOCC4)cc3)nc2s1` [Compound 2], in the data set with SCG neurons, the “protection from NGF-withdrawal induced cell death” value is given as “protected”. In the data set with PC12^rtTA cells (40 hours), the “protection from Adp75- or AdNRG-induced cell death” value is “protected”. Moreover, the “binding to HSP90 protein by STD 1H NMR” value in the data set on HSP90 protein is listed as “directly bind”.
